Reference: patent US10869924B2, “PD-L1 antagonist combination treatments” (MERCK PATENT GMBH, priority 2015, dated 2020)

Legend:
MC38 colon carcinoma [1] = test: Subcutaneous MC38 colon carcinoma model, avelumab, anti-4-1BB and anti-M-CSF (Example 5); format: in vivo, mouse; conditions: anti-4-1BB 1 mg/kg, anti-M-CSF 15 mg/kg, Avelumab 10 mg/kg, ip, 3 doses 3 to 4 days apart, C57BL/6 mice
Procedure: (§1) Six (6)- to 8-week old female C57BL/6 mice were purchased from the Jackson Laboratories. All animals were housed in a pathogen free vivarium facility at Rinat and experiments were conducted according to the protocols in accordance with the Institutional Animal Care and Use Committee (IACUC) guidelines.
(§2) The MC38 colon carcinoma cell line was kindly provided by Dr. Antoni Ribas at University of California, Los Angeles, Calif. Cells were cultured in Dulbecco's Modified Eagle's Medium (DMEM) supplemented with 10% fetal bovine serum (FBS), 2 mM L glutamine at 37° C. in 5% carbon dioxide (CO2), and IMPACT-tested for pathogens at Research Animal Diagnostic Laboratory (RADIL) (Columbia, Mo.). Pathogen-free cells growing in an exponential growth phase were harvested and used for tumor inoculation.
(§3) Therapeutic mouse anti-mouse 4-1BB mAb (mouse immunoglobulin G1 [mIgG1]), derived from the parental clone MAB9371 (R&D Systems), was prepared in-house. Avelumab was provided by Merck Serono. Rat anti-mouse M-CSF (clone 5A1), rat IgG1 (clone HRPN) and mIgG1 (clone: MOPC-21) isotype controls were purchased from BioXcell. Human IgG1 isotype was prepared in-house. Anti-4-1BB, avelumab and anti-M-CSF mAbs were diluted to concentrations of 0.1 mg/mL and 1 mg/mL, and 1.5 mg/mL, respectively, in phosphate buffered saline (PBS) (Life Technologies), and dosed at 0.2 mL per mouse intraperitoneally (ip) for 3 doses 3 to 4 days apart.
C57BL/6 mice were inoculated subcutaneously at the right flank with 0.5-1×10^6 MC38 cells in 0.1 mL of DMEM. When tumors reached an average of ˜60 mm^3 (range 41-93 mm^3), mice were randomized into groups of 10 animals per group, and treatment was started at the same day. Tumor size was measured in two dimensions using a caliper, and the volume was expressed in mm^3 using the formula: V=0.5 L×W^2 where L and W are the long and short diameters of the tumor, respectively. Body weight was recorded weekly.
Results were expressed as mean±SEM (Table 8). Statistical analyses were performed using GraphPad Prism 6.0. One-way or two-way ANOVA was applied to compare the statistical differences among multiple groups relative to isotype controls. P<0.05 was considered as significant difference.

B16F10 melanoma = test: Subcutaneous B16F10 melanoma model, anti-4-1BB and avelumab (Example 3); format: in vivo; conditions: anti-4-1BB 0.1 mg/mL, avelumab 1 mg/mL, 0.2 mL per mouse ip, 3 doses 3 to 4 days apart, C57BL/6 mice
Procedure: as §1
as §2, with “The B16F10 melanoma cell line was purchased from American Type Culture Collection (ATCC). The” for “The”, “L-glutamine” for “L glutamine”
as §3, with “Isotype control” for “Rat anti-mouse M-CSF (clone 5A1), rat IgG1 (clone HRPN) and”, “was” for “isotype controls were”, “IgG1” for “IgG1 isotype”, “Anti-4-1BB and” for “Anti-4-1BB,”, “avelumab” for “avelumab and anti-M-CSF mAbs”, “1” for “1 mg/mL, and 1.5”
(§4) C57BL/6 mice were inoculated subcutaneously at the right flank with 0.2×10^6 B16F10 or 0.5×10^6 MC38 cells in 0.1 mL of serum-free DMEM. When tumors reached target size, mice were randomized into treatment groups. Treatment was started on the same day as randomization. Tumor size was measured twice weekly in 2 dimensions using a caliper, and the volume was expressed in cubic millimeters using the formula: V=0.5 L×W^2 where L is the longest diameter of the tumor and W is the diameter perpendicular to L. Body weight was recorded weekly.
(§5) Results were expressed as mean±SEM. Statistical analyses were performed using GraphPad Prism 6.0. One-way or 2-way ANOVA was applied to compare the statistical differences among multiple groups relative to the isotype control. P<0.05 was considered as significant difference.
Two murine models were used to evaluate the therapeutic efficacy of anti-4-1BB in combination with avelumab. In the B16F10 melanoma model, the average starting tumor size was 67 to 78 mm^3 (range 44 to 114 mm^3; n=7 animals per group) (Table 5). By Day 26 post tumor inoculation, the tumors for isotype, anti-4-1BB alone, and avelumab alone groups reached an average of 1206±397 mm^3, 1979±425 mm^3, and 2112±429 mm^3, respectively (Table 5). By contrast, dramatic tumor suppression (average of 341±146 mm^3) was observed when animals were administered with anti-4-1BB and avelumab concurrently (p<0.0001 vs single agent alone groups) (Table 5).

[2] = in vivo; cited from earlier work
MC38 colon carcinoma [3] = test: Subcutaneous MC38 colon carcinoma model, anti-4-1BB and avelumab (Example 3); format: in vivo; conditions: anti-4-1BB 0.1 mg/mL, avelumab 1 mg/mL, 0.2 mL per mouse ip, 3 doses 3 to 4 days apart, C57BL/6 mice
Procedure: as §1
as §2, with “The B16F10 melanoma cell line was purchased from American Type Culture Collection (ATCC). The” for “The”, “L-glutamine” for “L glutamine”
as §3, with “Isotype control” for “Rat anti-mouse M-CSF (clone 5A1), rat IgG1 (clone HRPN) and”, “was” for “isotype controls were”, “IgG1” for “IgG1 isotype”, “Anti-4-1BB and” for “Anti-4-1BB,”, “avelumab” for “avelumab and anti-M-CSF mAbs”, “1” for “1 mg/mL, and 1.5”
as §4, §5
In the MC38 colon carcinoma model, the average starting tumor size was approximately 60 mm^3 (range 41-92 mm^3; n=10 animals per group) (Table 6). At the end of study (Day 23 post tumor implantation), the average tumor volumes of isotype, anti-4-1BB alone, avelumab alone, and anti-4-1BB antibody/avelumab combination groups were 1177±252 mm^3, 1093±183 mm^3, 901±206 mm^3, and 530±190 mm^3, respectively (Table 6). The reduction in tumor size by the combination treatment was significant, compared to the isotype control (p<0.001) and 4-1BB alone groups (p<0.01), but not to the avelumab group (p>0.05) (Table 6).

## Avelumab: fully human mAb of the IgG1 isotype that specifically targets and blocks PD-L1
MC38 colon carcinoma [1]; Day 7 post-tumor inoculation (start of treatment)
  Mean Tumor Size: 63 mm^3
MC38 colon carcinoma [1]; Day 10 post-tumor inoculation
  Mean Tumor Size: 127 mm^3
MC38 colon carcinoma [1]; Day 14 post-tumor inoculation
  Mean Tumor Size: 254 mm^3
MC38 colon carcinoma [1]; Day 16 post-tumor inoculation
  Mean Tumor Size: 384 mm^3
MC38 colon carcinoma [1]; Day 18 post-tumor inoculation
  Mean Tumor Size: 523 mm^3
MC38 colon carcinoma [1]; Day 21 post-tumor inoculation
  Mean Tumor Size: 714 mm^3
MC38 colon carcinoma [1]; Day 23 post-tumor inoculation
  Mean Tumor Size: 901 mm^3
B16F10 melanoma; Day 13 post tumor inoculation (starting tumor size)
  Tumor Measurements of Subcutaneous B16F10 Melanoma, Mean tumor volume: 78 mm^3
B16F10 melanoma; Day 17 post tumor inoculation
  Tumor Measurements of Subcutaneous B16F10 Melanoma, Mean tumor volume: 327 mm^3
B16F10 melanoma; Day 20 post tumor inoculation
  Tumor Measurements of Subcutaneous B16F10 Melanoma, Mean tumor volume: 654 mm^3
B16F10 melanoma; Day 24 post tumor inoculation
  Tumor Measurements of Subcutaneous B16F10 Melanoma, Mean tumor volume: 1304 mm^3
B16F10 melanoma; Day 26 post tumor inoculation
  Tumor Measurements of Subcutaneous B16F10 Melanoma, Mean tumor volume: 2112 mm^3
B16F10 melanoma; Day 26 post tumor inoculation, listed as avelumab
  Tumor Measurements of Subcutaneous B16F10 Melanoma, Mean tumor volume: 2112±429 mm^3
[2]
  half-life: 72 to 120 h
MC38 colon carcinoma [3]; Day 7 post tumor implantation (starting tumor size)
  Tumor Measurements of Subcutaneous MC38 Colon Carcinoma, Mean tumor volume: 63 mm^3
MC38 colon carcinoma [3]; Day 10 post tumor implantation
  Tumor Measurements of Subcutaneous MC38 Colon Carcinoma, Mean tumor volume: 127 mm^3
MC38 colon carcinoma [3]; Day 14 post tumor implantation
  Tumor Measurements of Subcutaneous MC38 Colon Carcinoma, Mean tumor volume: 254 mm^3
MC38 colon carcinoma [3]; Day 16 post tumor implantation
  Tumor Measurements of Subcutaneous MC38 Colon Carcinoma, Mean tumor volume: 384 mm^3
MC38 colon carcinoma [3]; Day 18 post tumor implantation
  Tumor Measurements of Subcutaneous MC38 Colon Carcinoma, Mean tumor volume: 523 mm^3
MC38 colon carcinoma [3]; Day 21 post tumor implantation
  Tumor Measurements of Subcutaneous MC38 Colon Carcinoma, Mean tumor volume: 714 mm^3
MC38 colon carcinoma [3]; Day 23 post tumor implantation (end of study)
  Tumor Measurements of Subcutaneous MC38 Colon Carcinoma, Mean tumor volume: 901 mm^3
MC38 colon carcinoma [3]; Day 23 post tumor implantation (end of study), listed as avelumab
  Tumor Measurements of Subcutaneous MC38 Colon Carcinoma, Mean tumor volume: 901±206 mm^3
